In article PMC5750217 (Nature Communications, 2018):

Target: T1, A2-S481T/C482T (mutant ASCT2) (Homo sapiens, UniProt Q15758, C467T/S466T)
T1 construct: expressed in transfected cells; host or cells: Xenopus laevis oocytes (cRNA injection)
T1 sequence (Q15758 1-541 S466T/C467T): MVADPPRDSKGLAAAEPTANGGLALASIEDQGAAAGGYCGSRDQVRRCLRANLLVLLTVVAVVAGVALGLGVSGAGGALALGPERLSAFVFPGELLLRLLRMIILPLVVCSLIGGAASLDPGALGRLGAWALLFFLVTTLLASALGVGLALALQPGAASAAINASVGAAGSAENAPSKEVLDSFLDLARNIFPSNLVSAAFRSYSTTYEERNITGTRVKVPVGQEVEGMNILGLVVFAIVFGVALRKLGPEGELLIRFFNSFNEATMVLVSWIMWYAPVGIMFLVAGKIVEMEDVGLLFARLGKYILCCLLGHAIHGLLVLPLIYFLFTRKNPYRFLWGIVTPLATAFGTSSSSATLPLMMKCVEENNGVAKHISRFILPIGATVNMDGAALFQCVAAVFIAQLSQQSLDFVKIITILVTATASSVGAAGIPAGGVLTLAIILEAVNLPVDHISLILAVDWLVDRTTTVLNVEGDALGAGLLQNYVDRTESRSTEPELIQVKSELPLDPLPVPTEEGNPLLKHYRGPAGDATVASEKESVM
Experiment: Radiolabelled uptake in oocytes expressing A2-S481T/C482T
Format: cell-based
Details: 10 µM L-[3H]substrate, 10 min, room temperature

N[C@@H](CO)C(=O)O [L-serine]
Radiolabelled substrate uptake into oocytes (in words): displays uptake
